# Test results as given in ChEMBL document CHEMBL1150706, “Novel chromones from Spathelia sorbifolia” (1987).
# Assay: Cytotoxicity against mouse 9PS cells
# Assay type: functional
# Conditions: read-out: ED50 (the source's name)
row,Compound,EC50 [µg/mL]
1,COc1c(/C=C/C(C)(C)O)c2c(c3oc(C)cc(=O)c13)C=CC(C)(C)O2,0.3
2,Cc1cc(=O)c2c(O)c3c(c(C(O)C(O)C(C)(C)O)c2o1)OC(C)(C)C=C3 (stereo not drawn),0.5
3,Cc1cc(=O)c2c(O)c3c(c(CC(O)C(C)(C)O)c2o1)OC(C)(C)C=C3 (stereo not drawn) [SPATHELIABISCHROMEN],3
